Counter-ions that a name gives are not always drawn.
| Compound | melting point |
| --- | --- |
| O=S(=O)(c1ccc(Cl)c(Cl)c1)c1c[nH]c2ccc(N3CCNCC3)cc12 [compound 111, 3-(3,4-dichloro-benzenesulfonyl)-5-piperazin-1-yl-1H-indole] | > 300 °C |
| O=S(=O)(c1nc2ccccc2s1)c1c[nH]c2c(N3CCNCC3)cccc12 [compound 114, 2-(7-piperazin-1-yl-1H-indole-3-sulfonyl)-benzothiazole] | 295 °C |
| O=S(=O)(c1ccc(Cl)cc1)c1c[nH]c2ccc(N3CCNCC3)cc12 [compound 204, 3-(4-chloro-benzenesulfonyl)-5-piperazin-1-yl-1H-indole] | 282 to 286.4 °C |
| O=S(=O)(c1cc(Cl)cc(Cl)c1)c1c[nH]c2ccc(N3CCNCC3)cc12 [compound 205, 3-(3,5-dichloro-benzenesulfonyl)-5-piperazin-1-yl-1H-indole] | > 300 °C |
| O=S(=O)(c1ccc(F)cc1)c1c[nH]c2c(N3CCNCC3)cccc12 [compound 104, 3-(4-fluoro-benzenesulfonyl)-7-piperazin-1-yl-1H-indole] | 247 to 249 °C |
| Cc1ccc(S(=O)(=O)c2c[nH]c3c(N4CCNCC4)cccc23)cc1 [compound 102, 7-piperazin-1-yl-3-(toluene-4-sulfonyl)-1H-indole] | 285 to 287 °C |
| Cn1cc(S(=O)(=O)c2ccccc2)c2cccc(N3CCNCC3)c21 (as salt: hydrochloride) [compound 401, 3-benzenesulfonyl-1-methyl-7-piperazin-1-yl-1H-indole hydrochloride] | 249 to 250 °C |
| O=S(=O)(c1ccccn1)c1c[nH]c2c(N3CCNCC3)cccc12 | 198 to 199 °C |
| O=S(=O)(c1cccc(Cl)c1)c1c[nH]c2c(C3CCNCC3)cccc12 [compound 208, 3-(3-Chloro-benzenesulfonyl)-7-piperidin-4-yl-1H-indole] | 272.3 to 272.9 °C |
| O=S(=O)(c1ccccc1)c1c[nH]c2c(N3CCNCC3)cccc12 (as salt: hydrochloride) | 278 to 280 °C |
| O=S(=O)(c1ccccn1)c1c[nH]c2cc(N3CCNCC3)ccc12 | 246.7 to 247.2 °C |
| Clc1cccc(Sc2c[nH]c3ccc(N4CCNCC4)cc23)c1Cl | 255.1 to 255.5 °C |
| c1ccc(Sc2c[nH]c3ccc(N4CCNCC4)cc23)cc1 | 246 to 247 °C |
| O=S(=O)(c1ccc(Cl)cc1Cl)c1c[nH]c2c(N3CCNCC3)cccc12 [compound 106, 3-(2,4-dichloro-benzenesulfonyl)-7-piperazin-1-yl-1H-indole] | 300 °C |
| O=S(=O)(c1ccncc1)c1c[nH]c2c(N3CCNCC3)cccc12 | 207 to 208 °C |
| O=S(=O)(c1cccc(Cl)c1)c1c[nH]c2c(N3CCNCC3)cccc12 [compound 107, 3-(3-chloro-benzenesulfonyl)-7-piperazin-1-yl-1H-indole] | 295 °C |
| O=S(=O)(c1ccc(C(F)(F)F)cc1)c1c[nH]c2ccc(N3CCNCC3)cc12 [compound 203, 5-piperazin-1-yl-3-(4-trifluoromethyl-benzenesulfonyl)-1H-indole] | 274.9 to 280.9 °C |
| O=S(=O)(c1cc(Cl)cc(Cl)c1)c1c[nH]c2c(N3CCNCC3)cccc12 [compound 105, 3-(3,5-dichloro-benzenesulfonyl)-7-piperazin-1-yl-1H-indole] | 290 °C |
| O=S(=O)(c1ccccc1)c1c[nH]c2c(C3CCNCC3)cccc12 [compound 301, 3-benzenesulfonyl-7-piperidin-4-yl-1H-indole] | 186 to 189.5 °C |
| O=S(=O)(c1ccccc1C(F)(F)F)c1c[nH]c2c(N3CCNCC3)cccc12 [compound 109, 7-piperazin-1-yl-3-(2-trifluoromethyl-benzenesulfonyl)-1H-indole] | 186 to 187 °C |
| O=S(=O)(c1ccc(Cl)c(Cl)c1)c1c[nH]c2c(N3CCNCC3)cccc12 [compound 103, 3-(3,4-dichloro-benzenesulfonyl)-7-piperazin-1-yl-1H-indole] | 290 °C |
| O=S(=O)(c1ccccc1Cl)c1c[nH]c2c(N3CCNCC3)cccc12 [compound 108, 3-(2-chloro-benzenesulfonyl)-7-piperazin-1-yl-1H-indole] | 280 to 282 °C |
| O=S(=O)(c1cccc(Cl)c1Cl)c1c[nH]c2ccc(N3CCNCC3)cc12 [compound 202, 3-(2,3-dichloro-benzenesulfonyl)-5-piperazin-1-yl-1H-indole] | > 300 °C |
| Cn1cc(S(=O)(=O)c2ccccn2)c2cccc(N3CCNCC3)c21 [compound 402, 1-methyl-7-piperazin-1-yl-3-(pyridine-2-sulfonyl)-1H-indole] | 297 to 298 °C |
| O=S(=O)(c1cccc(Cl)c1)c1c[nH]c2ccc(N3CCNCC3)cc12 [compound 110, 3-(3-chloro-benzenesulfonyl)-5-piperazin-1-yl-1H-indole] | 192 to 197 °C |
| c1ccc(Sc2c[nH]c3c(N4CCNCC4)cccc23)cc1 | 300 °C |

The next lines start with the values.

| melting point | Compound |
| --- | --- |
| 118 to 120 °C | Cc1[nH]c2c(N3CCNCC3)cccc2c1S(=O)(=O)c1ccc(Cl)cc1 [compound 602, 3-(4-chlorobenzenesulfonyl)-2-methyl-7-piperazin-1-yl-1H-indole] |
| 274 to 275 °C | CCN1CCN(c2cccc3c(S(=O)(=O)c4ccccc4)c[nH]c23)CC1 [compound 513, 3-benzenesulfonyl-7-(4-ethyl-piperazin-1-yl)-1H-indole] |
| 160 to 162 °C | CN1CCN(c2cccc3c(S(=O)(=O)c4ccccc4)c[nH]c23)CC1 (as salt: hydrochloride) [compound 501, 3-benzenesulfonyl-7-(4-methyl-piperazin-1-yl)-1H-indole] |
| 239 to 240 °C (dec.) | Cn1cc(S(=O)(=O)c2ccccc2)c2cc(N3CCNCC3)ccc21 [compound 403, 3-benzenesulfonyl-1-methyl-5-piperazin-1-yl-1H-indole] |
| 237.1 to 241.5 °C | CN1CCN(c2cccc3c(S(=O)(=O)c4cc(Cl)cc(Cl)c4)c[nH]c23)CC1 [compound 507, 3-(3,5-dichloro-benzenesulfonyl)-7-(4-methyl-piperazin-1-yl)-1H-indole] |
| 290 to 295 °C | CCCN1CCN(c2cccc3c(S(=O)(=O)c4ccccc4)c[nH]c23)CC1 [compound 512, 3-benzenesulfonyl-7-(4-propyl-piperazin-1-yl)-1H-indole] |
| 256.8 to 257.5 °C | Cn1cc(S(=O)(=O)c2ccccn2)c2cc(N3CCNCC3)ccc21 [compound 416, 1-methyl-5-piperazin-1-yl-3-(pyridine-2-sulfonyl)-1H-indole] |
| 300 °C | Cn1cc(S(=O)(=O)c2cccc(Cl)c2)c2cccc(N3CCNCC3)c21 [compound 408, 3-(3-chloro-benzenesulfonyl)-1-methyl-7-piperazin-1-yl-1H-indole] |
| 235 to 240 °C | Cn1cc(S(=O)(=O)c2cccc(C(F)(F)F)c2)c2cc(N3CCNCC3)ccc21 [compound 410, 1-methyl-5-piperazin-1-yl-3-(3-trifluoromethyl-benzenesulfonyl)-1H-indole] |
| 185.5 to 188.5 °C | Cn1cc(S(=O)(=O)c2cccc(Cl)c2)c2cc(N3CCNCC3)ccc21 [compound 415, 3-(3-chloro-benzenesulfonyl)-1-methyl-5-piperazin-1-yl-1H-indole] |
| 195 to 207 °C | Cn1cc(S(=O)(=O)c2ccc(F)cc2)c2cc(N3CCNCC3)ccc21 [compound 413, 3-(4-fluoro-benzenesulfonyl)-1-methyl-5-piperazin-1-yl-1H-indole] |
| 282 to 284.5 °C | Cn1cc(S(=O)(=O)c2cc(Cl)cc(Cl)c2)c2cc(N3CCNCC3)ccc21 [compound 411, 3-(3,5-dichloro-benzenesulfonyl)-1-methyl-5-piperazin-1-yl-1H-indole] |
| 249.6 to 253 °C | Cn1cc(S(=O)(=O)c2ccccc2Cl)c2cc(N3CCNCC3)ccc21 [compound 414, 3-(2-chloro-benzenesulfonyl)-1-methyl-5-piperazin-1-yl-1H-indole] |
| 168.5 to 175.9 °C | CN1CCN(c2cccc3c(S(=O)(=O)c4ccccc4Cl)c[nH]c23)CC1 [compound 504, 3-(2-chloro-benzenesulfonyl)-7-(4-methyl-piperazin-1-yl)-1H-indole] |
| 188 to 190 °C | Cc1[nH]c2c(N3CCNCC3)cccc2c1S(=O)(=O)c1ccccc1 [compound 601, 3-benzenesulfonyl-2-methyl-7-piperazin-1-yl-1H-indole] |
| 279 to 280 °C | Cn1cc(S(=O)(=O)c2cccc(C(F)(F)F)c2)c2cccc(N3CCNCC3)c21 [compound 406, 1-methyl-7-piperazin-1-yl-3-(3-trifluoromethyl-benzenesulfonyl)-1H-indole] |
| 182 to 184 °C | COc1ccc(S(=O)(=O)c2c(C)[nH]c3c(N4CCNCC4)cccc23)cc1 [compound 604, 3-(4-methoxybenzenesulfonyl)-2-methyl-7-piperazin-1-yl-1H-indole] |
| 280 to 282 °C | O=S(=O)(c1ccccc1)c1c[nH]c2c(N3CCN(CC4CC4)CC3)cccc12 [compound 511, 3-benzenesulfonyl-7-(4-cyclopropylmethyl-piperazin-1-yl)-1H-indole] |
| 237.1 to 241.5 °C | CN1CCN(c2cccc3c(S(=O)(=O)c4ccccc4C(F)(F)F)c[nH]c23)CC1 [compound 508, 7-(4-methyl-piperazin-1-yl)-3-(2-trifluoromethyl-benzenesulfonyl)-1H-indole] |
| 196 to 203 °C | CN1CCN(c2cccc3c(S(=O)(=O)c4ccc(Cl)c(Cl)c4)c[nH]c23)CC1 [compound 503, 3-(3,4-dichloro-benzenesulfonyl)-7-(4-methyl-piperazin-1-yl)-1H-indole] |
| 198 to 203 °C | Cn1cc(S(=O)(=O)c2cccc(Cl)c2Cl)c2cc(N3CCNCC3)ccc21 [compound 409, 3-(2,3-dichloro-benzenesulfonyl)-1-methyl-5-piperazin-1-yl-1H-indole] |
| 260 to 262 °C | CN1CCN(c2cccc3c(S(=O)(=O)c4ccccc4)cn(C)c23)CC1 [compound 502, 3-benzenesulfonyl-1-methyl-7-(4-methyl-piperazin-1-yl)-1H-indole] |

Source: patent US6787535B2, “Indole derivatives with 5HT6 receptor affinity” (Syntex (U.S.A.) LLC, priority 2001, dated 2004)
